# Values of other authors in patent US9572826B2, “Compositions for the treatment of hair loss” (priority 2008, dated 2017).
# Key:
# hair loss = settings: human, in vivo
# alopecia areata = settings: intralesional injection
Compound,patients in whom effective (hair loss),side effects reported (hair loss),injected sites with hair regrowth (alopecia areata)
CC(C)(C)NC(=O)[C@H]1CC[C@H]2[C@@H]3CC[C@H]4NC(=O)C=C[C@]4(C)[C@H]3CC[C@]12C [Finasteride],approximately 50%,erectile dysfunction and gynecomastica,
CC(C)(C)CC(=O)OCC(=O)[C@@]12OC(C)(C)O[C@@H]1C[C@H]1[C@@H]3CCC4=CC(=O)C=C[C@]4(C)[C@@]3(F)[C@@H](O)C[C@@]12C [triamcinolone hexacetonide],,,33 out of 34
